The text below walks through data of US7326732B2, “EP2 receptor agonists” (Pharmagene Laboratories Limited, priority 2004, dated 2008).

One assay addresses T1, human EP2 receptor (Homo sapiens, UniProt P43116).
T1 construct: expressed in transfected cells
The assay can be described thus: Binding ability to human EP receptors ([3H]PGE2 displacement), EP2. As to conditions: membranes expressing human EP2; [3H]PGE2 3 nM; Cheng-Prusoff; read-out: pKi (M) EP2 (converted). The method, then: (§1) Membranes were prepared from cells stably transfected with human EP receptor cDNA. In brief, cells were cultured to confluency, scraped from culture flasks, and centrifuged (800 g, 8 minutes, 4° C.). Cells were twice washed in ice cold homogenisation buffer containing 10 mMTris-HCl, 1 mM EDTA.2Na, 250 mM sucrose, 1 mM PMSF, 0.3 mM indomethacin, pH 7.4, homogenised and re-centrifuged as before. The supernatant was stored on ice and pellets re-homogenised and re-spun. Supernatants were pooled and centrifuged at 40000 g, 10 minutes, 4° C. Resultant membrane pellets were stored at −80° C. until use. For assay, membranes expressing human EP4, EP3, EP2 or EP1 receptors were incubated in Millipore (MHVBN45) plates containing assay buffer, radiolabelled [^3H]PGE2 and 0.1 to 10 000 nM concentrations of compounds. Incubations were performed at suitable temperatures and for suitable times to allow equilibrium to be reached. Non-specific binding was determined in the presence of 10 uM PGE2. Bound and free radiolabel was separated by vacuum manifold filtration using appropriate wash buffers, and bound radiolabel was determined by scintillation counting. Constituents of each of the buffers are included in table 1 below. […] Raven Press, New York, 2nd edition.

The target of a further assay is T2, human EP4 receptor (Homo sapiens, UniProt P35408).
T2 construct: expressed in transfected cells
The assay can be described thus: Binding ability to human EP receptors ([3H]PGE2 displacement), EP4. To be noted: membranes expressing human EP4; [3H]PGE2 1 nM; Cheng-Prusoff; read-out: pKi (M) EP4 (converted). The method, then: as §1

The next assay deals with T3, human EP3 receptor (Homo sapiens, UniProt P43115).
T3 construct: expressed in transfected cells
T3 sequence (P43115 1-390): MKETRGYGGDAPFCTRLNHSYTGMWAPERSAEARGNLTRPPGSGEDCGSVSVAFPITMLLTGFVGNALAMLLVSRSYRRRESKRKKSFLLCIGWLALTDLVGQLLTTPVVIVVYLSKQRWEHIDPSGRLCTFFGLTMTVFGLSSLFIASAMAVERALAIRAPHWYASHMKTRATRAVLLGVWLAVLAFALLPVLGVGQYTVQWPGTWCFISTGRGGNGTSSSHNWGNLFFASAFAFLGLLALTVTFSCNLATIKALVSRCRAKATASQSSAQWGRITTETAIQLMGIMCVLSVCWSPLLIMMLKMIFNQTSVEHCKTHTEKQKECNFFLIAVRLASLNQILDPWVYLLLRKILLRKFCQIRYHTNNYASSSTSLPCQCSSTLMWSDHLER
Put plainly: Binding ability to human EP receptors ([3H]PGE2 displacement), EP3. As to conditions: membranes expressing human EP3; [3H]PGE2 2.5 nM; Cheng-Prusoff; read-out: pKi (M) EP3 (converted). The method, then:
as §1

The target in assay [1] is T4, human EP2 prostanoid receptors (Homo sapiens, UniProt P43116).
T4 construct: expressed in transfected cells; host or cells: HEK-293
The assay can be described thus: Agonist activity at recombinant human EP2 prostanoid receptors (cAMP in HEK-293 clones). Type of assay: cell-based. The method, then: Culture media was Minimal essential media (MEM), supplemented with 10% foetal bovine serum, 100 U/ml penicillin, […] streptomycin, 2.5 μg/ml fungizone, 2mM glutamine. Cells were cultured to confluency (3-4 days) prior to use. Culture media was removed, and confluent cells washed three times in MEM. […] Cells were then stimulated by the addition of 25 μl of PGE2 or agonists prepared in assay buffer. In antagonist studies, cells were pre-incubated with compounds for 30 minutes prior to PGE2-mediated stimulation Plates were incubated for 15 min at 37° C., before termination of the reaction by the addition of 25 μl 1M HCl. The plate was then frozen at -20° C. overnight before determination of cAMP concentration. Stimulated cAMP levels were determined by radioligand displacement binding. In brief, plates were thawed rapidly in a waterbath, and the samples neutralised by the addition of 25 μl 1M NaOH. 30 μl was transferred to Millipore plates pre-coated with 0.5% Polyethylenimine (PEI). Samples were diluted by addition of 90 μl cAMP determination buffer (50 mM Tris, 5 mM EDTA, pH 7.0). […] 15 μl of 2 nM (final concentration) [^3H] cAMP, and 15 μl of 3'5'-cAMP protein kinase (8 μg/well final concentration) prepared in cAMP determination buffer containing 0.1% BSA, were added to each well. Plates were incubated on ice for 2 hours, before bound and free radiolabel were separated by vacuum filtration harvesting using the Millipore vacuum manifold, using ice cold water as the termination buffer. The sealing mat was removed from the Millipore plates, and the filters allowed to dry overnight. 50 μl Microscint 0 (Packard Bioscience) was added to each well, and the plate counted using the Micro-Beta Trilux topcount ^3H program. cAMP accumulation was determined from the standard curve, and values calculated in pmoles cAMP/well. Antagonists affinities (pA2 values) were determined assuming a slope of unity and the […]-Schild equation, where pA2=log [concentration ratio-1]-log[antagonist].

The structures appear in SMILES notation.

T1 sequence (P43116 whole entry): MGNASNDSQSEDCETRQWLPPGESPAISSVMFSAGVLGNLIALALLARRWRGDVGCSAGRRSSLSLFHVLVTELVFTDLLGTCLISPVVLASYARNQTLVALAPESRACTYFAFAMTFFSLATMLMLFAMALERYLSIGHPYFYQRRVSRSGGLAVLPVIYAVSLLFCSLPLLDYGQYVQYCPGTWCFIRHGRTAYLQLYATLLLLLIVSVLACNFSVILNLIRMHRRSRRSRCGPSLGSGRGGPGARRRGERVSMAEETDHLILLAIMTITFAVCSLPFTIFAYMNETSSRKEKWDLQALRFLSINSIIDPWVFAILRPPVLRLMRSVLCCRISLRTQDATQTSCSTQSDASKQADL
T2 sequence (P35408 whole entry): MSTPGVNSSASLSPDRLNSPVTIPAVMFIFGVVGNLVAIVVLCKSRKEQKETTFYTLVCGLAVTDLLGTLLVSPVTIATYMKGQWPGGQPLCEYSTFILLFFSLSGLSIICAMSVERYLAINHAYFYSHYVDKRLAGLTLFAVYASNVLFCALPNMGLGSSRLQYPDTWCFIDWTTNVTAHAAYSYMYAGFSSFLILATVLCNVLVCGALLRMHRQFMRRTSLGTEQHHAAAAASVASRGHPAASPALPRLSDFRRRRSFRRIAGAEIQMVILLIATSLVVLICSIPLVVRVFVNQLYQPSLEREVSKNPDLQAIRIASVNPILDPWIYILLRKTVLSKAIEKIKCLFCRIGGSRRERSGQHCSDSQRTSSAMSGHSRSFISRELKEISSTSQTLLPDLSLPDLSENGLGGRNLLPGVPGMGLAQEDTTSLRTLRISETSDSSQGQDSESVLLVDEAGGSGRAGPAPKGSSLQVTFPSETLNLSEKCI
T4 sequence (P43116 whole entry): as the sequence (P43116 whole entry) above

In the case of `Cc1cc(C(=O)Nc2cccc(CC(=O)O)c2)sc1-c1ccccc1` [Compound 50, {3-[(4-Methyl-5-phenyl-thiophene-2-carbonyl)-amino]-phenyl}-acetic acid], the Ki is below 1e-05 M on human EP2 receptor, above 1e-05 M on human EP4 receptor and above 1e-05 M at human EP3 receptor.

Turning to `O=C(O)Cc1cccc(NC(=O)c2cnc(-c3ccccc3)[nH]2)c1` [Compound 53, {3-[(2-Phenyl-1H-imidazole-5-carbonyl)-amino]-phenyl}-acetic acid], the Ki on human EP2 receptor was below 1e-05 M; at human EP4 receptor, above 1e-05 M; at human EP3 receptor, above 1e-05 M.

For the compound `O=C(O)/C=C/c1cccc(SCc2csc(-c3ccccc3)n2)c1` [Compound 122, 3-[3-(2-Phenyl-thiazol-4-ylmethylsulfanyl)-phenyl]-acrylic acid], the Ki was below 1e-07 M on human EP2 receptor, below 1e-06 M on human EP4 receptor and above 1e-05 M on human EP3 receptor.

Regarding `O=C(Nc1cccc(Cc2nnn[nH]2)c1)c1ccc(-c2cccc(F)c2)o1` [Compound 86, 5-(3-Fluoro-phenyl)-furan-2-carboxylic acid [3-(1H-tetrazol-5-ylmethyl)-phenyl]-amide], the Ki at human EP2 receptor was below 1e-07 M; at human EP4 receptor, above 1e-05 M. In assay [1] (HEK-293 stably transfected with human EP2, cAMP accumulation, read-out: pEC50 EP2 (converted)), the EC50 was below 0.1 µM. Further, the “activity (EP2 part)” value in assay [1] (functional classification at EP2) is given as “EP2 Agonist”.

`O=C(O)Cc1cccc(NC(=O)c2ccc(-c3ccc(OC(F)(F)F)cc3)o2)c1` [Compound 33, (3-{[5-(4-Trifluoromethoxy-phenyl)-furan-2-carbonyl]-amino}-phenyl)-acetic acid]: the values for the Ki at human EP2 receptor, at human EP4 receptor and on human EP3 receptor were below 1e-05 M, above 1e-05 M and above 1e-05 M, respectively.

For the compound `O=C(O)Cc1cccc(NC(=O)c2ccc(-c3ccccc3)cc2Cl)c1` [Compound 48, {3-[(3-Chloro-biphenyl-4-carbonyl)-amino]-phenyl}-acetic acid], the results for the Ki at human EP2 receptor, at human EP4 receptor and at human EP3 receptor were below 1e-05 M, above 1e-05 M and above 1e-05 M, respectively.

For the compound `CC(C)c1ccc(-c2ccc(C(=O)Nc3cccc(CC(=O)O)c3)o2)cc1` [Compound 35, (3-{[5-(4-Isopropyl-phenyl)-furan-2-carbonyl]-amino}-phenyl)-acetic acid], the values for the Ki on human EP2 receptor, at human EP4 receptor and on human EP3 receptor were below 1e-05 M, above 1e-05 M and above 1e-05 M, respectively.

`O=C(O)Cc1cccc(NC(=O)c2ccc(-c3ccc(Cl)cc3Cl)o2)c1` [Compound 25, (3-{[5-(2,4-Dichloro-phenyl)-furan-2-carbonyl]-amino}-phenyl)-acetic acid]: the Ki at human EP2 receptor is below 1e-05 M; at human EP4 receptor, above 1e-05 M; at human EP3 receptor, above 1e-05 M.

Regarding `O=C(O)Cc1cccc(NC(=O)c2ccc(-c3ccccc3)s2)c1` [Compound 43, {3-[(5-Phenyl-thiophene-2-carbonyl)-amino]-phenyl}-acetic acid], the Ki on human EP2 receptor was below 1e-05 M; on human EP4 receptor, above 1e-05 M; on human EP3 receptor it was above 1e-05 M.

Regarding `O=C(O)c1cc2cc(NC(=O)c3ccc(-c4ccccc4)o3)ccc2o1` [Compound 96, 5-[(5-Phenyl-furan-2-carbonyl)-amino]-benzofuran-2-carboxylic acid], the Ki at human EP2 receptor is below 1e-06 M; at human EP4 receptor, above 1e-05 M; on human EP3 receptor, above 1e-05 M.

Regarding `O=C(O)Cc1cccc(NC(=O)c2ccc(F)c(-c3ccccc3)c2)c1` [Compound 46, {3-[(6-Fluoro-biphenyl-3-carbonyl)-amino]-phenyl}-acetic acid], the Ki was below 1e-05 M on human EP2 receptor, above 1e-05 M on human EP4 receptor and above 1e-05 M on human EP3 receptor.

On to `O=C(O)Cc1cccc(NC(=O)c2ccc(-c3cccc(C(F)(F)F)c3)o2)c1` [Compound 24, (3-{[5-(3-Trifluoromethyl-phenyl)-furan-2-carbonyl]-amino}-phenyl)-acetic acid], for which the Ki is below 1e-06 M on human EP2 receptor, above 1e-05 M at human EP4 receptor and above 1e-05 M at human EP3 receptor.

Turning to `O=C(O)Cc1cccc(NC(=O)c2ccc(-c3ccco3)o2)c1` [Compound 38, {3-[([2,2′]Bifuranyl-5-carbonyl)-amino]-phenyl}-acetic acid], the values for the Ki at human EP2 receptor, on human EP4 receptor and on human EP3 receptor were below 1e-05 M, above 1e-05 M and above 1e-05 M, respectively.

Turning to `Cc1ccc(-c2ccc(C(=O)Nc3cccc(CC(=O)O)c3)o2)cc1` [Compound 22, (3-{[5-(4-Methyl-phenyl)-furan-2-carbonyl]-amino}-phenyl)-acetic acid], the Ki was below 1e-05 M on human EP2 receptor, above 1e-05 M on human EP4 receptor and above 1e-05 M at human EP3 receptor.

Turning to `O=C(O)Cc1cccc(NC(=O)c2ccc(-c3ccccc3C(F)(F)F)o2)c1` [Compound 23, (3-{[5-(2-Trifluoromethyl-phenyl)-furan-2-carbonyl]-amino}-phenyl)-acetic acid], the Ki was below 1e-05 M on human EP2 receptor, above 1e-05 M at human EP4 receptor and above 1e-05 M at human EP3 receptor.

`O=C(Nc1cccc(/C=C/c2nnn[nH]2)c1)c1cc(-c2ccccc2)ccc1F` [Compound 176, 4-Fluoro-biphenyl-3-carboxylic acid {3-[2-(1H-tetrazol-5-yl)-vinyl]phenyl}-amide]: the Ki is below 1e-07 M at human EP2 receptor, above 1e-05 M at human EP4 receptor and above 1e-05 M at human EP3 receptor.

On to `O=C(Nc1cccc(Cc2nnn[nH]2)c1)c1ccc(-c2ccccc2)o1` [Compound 75, 5-Phenyl-furan-2-carboxylic acid [3-(1H-tetrazol-5-ylmethyl)-phenyl]-amide], for which the Ki at human EP2 receptor is below 1e-07 M; at human EP4 receptor, above 1e-05 M; at human EP3 receptor, above 1e-05 M.

`NC(=O)Cc1cccc(NC(=O)c2ccc(-c3ccccc3)o2)c1` [Compound 73, 5-Phenyl-furan-2-carboxylic acid (3-carbamoylmethyl-phenyl)-amide]: the Ki at human EP2 receptor was below 1e-05 M; at human EP4 receptor it was above 1e-05 M; on human EP3 receptor, above 1e-05 M.

`O=C(O)c1ccc2cc(NC(=O)c3ccc(-c4ccccc4)o3)ccc2c1` [Compound 63, 6-[(5-Phenyl-furan-2-carbonyl)-amino]-naphthalene-2-carboxylic acid]: the Ki at human EP2 receptor was below 1e-05 M; at human EP4 receptor, above 1e-05 M; at human EP3 receptor, above 1e-05 M.

Regarding `O=C(O)c1cc2cc(NC(=O)c3ccc(-c4ccccc4)o3)ccc2[nH]1` [Compound 59, 5-[(5-Phenyl-furan-2-carbonyl)-amino]-1H-indole-2-carboxylic acid], the Ki on human EP2 receptor was below 1e-05 M; at human EP4 receptor it was above 1e-05 M; at human EP3 receptor, above 1e-05 M.

For `O=C(O)/C=C/c1cccc(NC(=O)c2ccc(-c3cccc(-c4ccccc4)c3)o2)c1` [Compound 103, 3-{3-[(5-Biphenyl-3-yl-furan-2-carbonyl)-amino]-phenyl}-acrylic acid], the Ki at human EP2 receptor is below 1e-07 M; at human EP4 receptor, below 1e-06 M; on human EP3 receptor, above 1e-05 M.

`O=C(Nc1cccc(/C=C/c2nnn[nH]2)c1)c1cccc(-c2ccccc2)n1` [Compound 175, 6-Phenyl-pyridine-2-carboxylic acid {3-[2-(1H-tetrazol-5-yl)-vinyl]phenyl}-amide]: the Ki on human EP2 receptor is below 1e-07 M; at human EP4 receptor it was below 1e-07 M; at human EP3 receptor, above 1e-05 M.
